In US20240228504A1, “SUBSTITUTED TRICYCLIC AMIDES, ANALOGUES THEREOF, AND METHODS USING SAME” (Arbutus Biopharma Corporation, priority 2020, published 2024) one finds EC50 data, which are given here for 27 molecules.

The assay concerns HBV rcDNA in HepDE19 cells. Nature of the assay: HepDE19 assay with bDNA quantitation of HBV rcDNA. It counts as cell-based, hepatitis B virus. Particulars: HepDE19 assay, inhibition of rcDNA formation, bDNA quantitation; read-out: DE-19bDNA EC50.
`CN(C(=O)c1cc2c(F)cccc2[nH]1)C1CNCc2[nH]c(=O)c3cc(F)c(F)cc3c21` (single isomer, unassigned) [Compound 105, N-(8,9-Difluoro-6-oxo-1,2,3,4,5,6-hexahydrobenzo[c][1,7]naphthyridin-1-yl)-4-fluoro-N-methyl-1H-indole-2-carboxamide]: the EC50 was 10 nM. As to `CN(C(=O)c1cc2c(F)cccc2[nH]1)C1CNCc2[nH]c(=O)c3cc(F)c(F)cc3c21` (single isomer, unassigned) [Compound 106, N-(8,9-Difluoro-6-oxo-1,2,3,4,5,6-hexahydrobenzo[c][1,7]naphthyridin-1-yl)-4-fluoro-N-methyl-1H-indole-2-carboxamide], the EC50 was 100 nM. Under `CN(C(=O)c1cc2ccc(F)cc2[nH]1)C1CNCc2[nH]c(=O)c3cc(F)c(F)cc3c21` (single isomer, unassigned) [Compound 107, N-(8,9-Difluoro-6-oxo-1,2,3,4,5,6-hexahydrobenzo[c][1,7]naphthyridin-1-yl)-6-fluoro-N-methyl-1H-indole-2-carboxamide] stands 20 nM. Take `CN(C(=O)c1cc2ccc(F)cc2[nH]1)C1CNCc2[nH]c(=O)c3cc(F)c(F)cc3c21` (single isomer, unassigned) [Compound 108, N-(8,9-Difluoro-6-oxo-1,2,3,4,5,6-hexahydrobenzo[c][1,7]naphthyridin-1-yl)-6-fluoro-N-methyl-1H-indole-2-carboxamide]: the EC50 worked out at 1600 nM. The same measure for `CN(C(=O)c1cc2cccc(F)c2[nH]1)C1CNCc2[nH]c(=O)c3cc(F)c(F)cc3c21` (single isomer, unassigned) [Compound 113, N-(8,9-Difluoro-6-oxo-1,2,3,4,5,6-hexahydrobenzo[c][1,7]naphthyridin-1-yl)-7-fluoro-N-methyl-1H-indole-2-carboxamide]: 430 nM. The same measure for `CN(C(=O)c1cc2cccc(F)c2[nH]1)C1CNCc2[nH]c(=O)c3cc(F)c(F)cc3c21` (single isomer, unassigned) [Compound 114, N-(8,9-Difluoro-6-oxo-1,2,3,4,5,6-hexahydrobenzo[c][1,7]naphthyridin-1-yl)-7-fluoro-N-methyl-1H-indole-2-carboxamide]: 20 nM. The same measure for `CN(C(=O)c1cc2cc(F)c(F)cc2[nH]1)C1CNCc2[nH]c(=O)c3cc(F)c(F)cc3c21` (single isomer, unassigned) [Compound 115, N-(8,9-Difluoro-6-oxo-1,2,3,4,5,6-hexahydrobenzo[c][1,7]naphthyridin-1-yl)-5,6-difluoro-N-methyl-1H-indole-2-carboxamide]: 20 nM; for `CN(C(=O)c1cc2cc(F)c(F)cc2[nH]1)C1CNCc2[nH]c(=O)c3cc(F)c(F)cc3c21` (single isomer, unassigned) [Compound 116, N-(8,9-Difluoro-6-oxo-1,2,3,4,5,6-hexahydrobenzo[c][1,7]naphthyridin-1-yl)-5,6-difluoro-N-methyl-1H-indole-2-carboxamide]: 1300 nM; for `CN(C(=O)c1cc2c(F)cc(F)cc2[nH]1)C1CNCc2[nH]c(=O)c3cc(F)c(F)cc3c21` (single isomer, unassigned) [Compound 117, N-(8,9-Difluoro-6-oxo-1,2,3,4,5,6-hexahydrobenzo[c][1,7]naphthyridin-1-yl)-4,6-difluoro-N-methyl-1H-indole-2-carboxamide]: 20 nM. `CN(C(=O)c1cc2c(F)cc(F)cc2[nH]1)C1CNCc2[nH]c(=O)c3cc(F)c(F)cc3c21` (single isomer, unassigned) [Compound 118, N-(8,9-Difluoro-6-oxo-1,2,3,4,5,6-hexahydrobenzo[c][1,7]naphthyridin-1-yl)-4,6-difluoro-N-methyl-1H-indole-2-carboxamide]: the EC50 was found to be 1200 nM.

On to `CN(C(=O)c1cc2c(F)c(F)ccc2[nH]1)C1CNCc2[nH]c(=O)c3cc(F)c(F)cc3c21` (single isomer, unassigned) [Compound 119, N-(8,9-Difluoro-6-oxo-1,2,3,4,5,6-hexahydrobenzo[c][1,7]naphthyridin-1-yl)-4,5-difluoro-N-methyl-1H-indole-2-carboxamide], for which the half-maximal effective concentration (EC50) is 10 nM. The same measure for `CN(C(=O)c1cc2c(F)c(F)ccc2[nH]1)C1CNCc2[nH]c(=O)c3cc(F)c(F)cc3c21` (single isomer, unassigned) [Compound 120, N-(8,9-Difluoro-6-oxo-1,2,3,4,5,6-hexahydrobenzo[c][1,7]naphthyridin-1-yl)-4,5-difluoro-N-methyl-1H-indole-2-carboxamide]: 850 nM; for `CN(C(=O)c1cc2ccc(Cl)cn2c1)C1CNCc2[nH]c(=O)c3cc(F)c(F)cc3c21` (single isomer, unassigned) [Compound 121, 6-Chloro-N-(8,9-difluoro-6-oxo-1,2,3,4,5,6-hexahydrobenzo[c][1,7]naphthyridin-1-yl)-N-methylindolizine-2-carboxamide]: 30 nM.

For the molecule `CN(C(=O)c1cc2ccc(Cl)cn2c1)C1CNCc2[nH]c(=O)c3cc(F)c(F)cc3c21` (single isomer, unassigned) [Compound 122, 6-Chloro-N-(8,9-difluoro-6-oxo-1,2,3,4,5,6-hexahydrobenzo[c][1,7]naphthyridin-1-yl)-N-methylindolizine-2-carboxamide], the EC50 was 1200 nM. The same measure for `CN(C(=O)c1cc2c(F)cccn2c1)C1C[S+]([O-])Cc2[nH]c(=O)c3cc(F)c(F)cc3c21` (single isomer, unassigned) [Compound 149, N-(8,9-Difluoro-3-oxido-6-oxo-1,4,5,6-tetrahydro-2H-thiopyrano[3,4-c]isoquinolin-1-yl)-8-fluoro-N-methylindolizine-2-carboxamide]: 150 nM. Under `CN(C(=O)c1cc2c(F)cccn2c1)C1C[S+]([O-])Cc2[nH]c(=O)c3cc(F)c(F)cc3c21` (single isomer, unassigned) [Compound 150, N-(8,9-Difluoro-3-oxido-6-oxo-1,4,5,6-tetrahydro-2H-thiopyrano[3,4-c]isoquinolin-1-yl)-8-fluoro-N-methylindolizine-2-carboxamide] stands 1100 nM; under `CN(C(=O)c1cc2c(F)cccn2c1)C1CS(=O)(=O)Cc2[nH]c(=O)c3cc(F)c(F)cc3c21` (single isomer, unassigned) [Compound 151, N-(8,9-Difluoro-3,3-dioxido-6-oxo-2,4,5,6-tetrahydro-1H-thiopyrano[3,4-c]isoquinolin-1-yl)-8-fluoro-N-methylindolizine-2-carboxamide], 3610 nM. Regarding `CN(C(=O)c1cc2c(F)cccn2c1)C1CS(=O)(=O)Cc2[nH]c(=O)c3cc(F)c(F)cc3c21` (single isomer, unassigned) [Compound 152, N-(8,9-Difluoro-3,3-dioxido-6-oxo-2,4,5,6-tetrahydro-1H-thiopyrano[3,4-c]isoquinolin-1-yl)-8-fluoro-N-methylindolizine-2-carboxamide], the concentration giving a half-maximal response (EC50) is 730 nM.

As for `CN(C(=O)c1cc2c(F)cccn2c1)C1CNCc2[nH]c(=O)c3cc(F)c(F)cc3c21` (single isomer, unassigned) [Compound 160, N-(8,9-Difluoro-6-oxo-1,2,3,4,5,6-hexahydrobenzo[c][1,7]naphthyridin-1-yl)-8-fluoro-N-methylindolizine-2-carboxamide], the half-maximal effective concentration (EC50) was 16200 nM. Under `CN(C(=O)c1cc2c(F)cccn2c1)C1CNCc2[nH]c(=O)c3cc(F)c(F)cc3c21` (single isomer, unassigned) [Compound 161, N-(8,9-Difluoro-6-oxo-1,2,3,4,5,6-hexahydrobenzo[c][1,7]naphthyridin-1-yl)-8-fluoro-N-methylindolizine-2-carboxamide] stands 20 nM; under `CN(C(=O)c1cc2cc(F)ccn2c1)C1CNCc2[nH]c(=O)c3cc(F)c(F)cc3c21` (single isomer, unassigned) [Compound 162, N-(8,9-Difluoro-6-oxo-1,2,3,4,5,6-hexahydrobenzo[c][1,7]naphthyridin-1-yl)-7-fluoro-N-methylindolizine-2-carboxamide], 13800 nM. Regarding `CN(C(=O)c1cc2cc(F)ccn2c1)C1CNCc2[nH]c(=O)c3cc(F)c(F)cc3c21` (single isomer, unassigned) [Compound 163, N-(8,9-Difluoro-6-oxo-1,2,3,4,5,6-hexahydrobenzo[c][1,7]naphthyridin-1-yl)-7-fluoro-N-methylindolizine-2-carboxamide], the concentration giving a half-maximal response (EC50) was determined as 30 nM. The same measure for `CN(C(=O)c1cc(F)c(Br)c(F)c1)C1CNCc2[nH]c(=O)c3cc(F)c(F)cc3c21` (single isomer, unassigned) [Compound 164, 4-Bromo-N-(8,9-difluoro-6-oxo-1,2,3,4,5,6-hexahydrobenzo[c][1,7]naphthyridin-1-yl)-3,5-difluoro-N-methylbenzamide]: 2880 nM. The same measure for `CN(C(=O)c1cc(F)c(Br)c(F)c1)C1CNCc2[nH]c(=O)c3cc(F)c(F)cc3c21` (single isomer, unassigned) [Compound 165, 4-Bromo-N-(8,9-difluoro-6-oxo-1,2,3,4,5,6-hexahydrobenzo[c][1,7]naphthyridin-1-yl)-3,5-difluoro-N-methylbenzamide]: 20 nM; for `CN(C(=O)c1cc(F)c(Br)c(F)c1)C1COCc2[nH]c(=O)c3cc(F)ccc3c21` (single isomer, unassigned) [Compound 166, 4-Bromo-3,5-difluoro-N-(8-fluoro-6-oxo-2,4,5,6-tetrahydro-1H-pyrano[3,4-c]isoquinolin-1-yl)-N-methylbenzamide]: 1910 nM. Under `CN(C(=O)c1cc(F)c(Br)c(F)c1)C1COCc2[nH]c(=O)c3cc(F)ccc3c21` (single isomer, unassigned) [Compound 167, 4-Bromo-3,5-difluoro-N-(8-fluoro-6-oxo-2,4,5,6-tetrahydro-1H-pyrano[3,4-c]isoquinolin-1-yl)-N-methylbenzamide] stands 10 nM. As to `CN(C(=O)c1cc(F)c(Cl)c(F)c1)C1CNCc2[nH]c(=O)c3cc(F)c(F)cc3c21` (single isomer, unassigned) [Compound 168, 4-Chloro-N-(8,9-difluoro-6-oxo-1,2,3,4,5,6-hexahydrobenzo[c][1,7]naphthyridin-1-yl)-3,5-difluoro-N-methylbenzamide], the EC50 came to 11300 nM.
